Data reported in ChEMBL document CHEMBL6127034, “Design, synthesis and biological evaluation of a novel PAK1 degrader for the treatment of triple negative breast cancer” (Bioorg Med Chem, 2024).
Calls of active or inactive are those of the source. No cut-off for these calls is given here.

Assays:
[1] = system: MDA-MB-231; experiment: Induction of apoptosis in human MDA-MB-231 cells assessed as late apoptotic cells at 2.5 to 10 uM incubated for 12 hrs by Annexin V-FITC/PI staining based flow cytometry (reference value: 2.46 %); assay type: functional; conditions: dose 2.5-10 µM
[2] = system: MDA-MB-231; experiment: Induction of apoptosis in human MDA-MB-231 cells assessed as increase in cleaved PARP level at 2.5 to 10 uM incubated upto 48 hrs by Western blot analysis; assay type: functional, cell-based; conditions: dose 2.5-10 µM
[3] = system: MDA-MB-231; experiment: Induction of apoptosis in human MDA-MB-231 cells assessed as early apoptotic cells at 2.5 to 10 uM incubated for 24 hrs by Annexin V-FITC/PI staining based flow cytometry (reference value: 1.70 %); assay type: functional; conditions: dose 2.5-10 µM
[4] = target: T1, von Hippel-Lindau disease tumor suppressor/Serine/threonine-protein kinase PAK 1 (Homo sapiens, UniProt Q13153+P40337); experiment: PROTAC activity at VHL/PAK1 in human MDA-MB-231 cells assessed as induction of protein degradation at 0.1 uM incubated for 48 hrs by Western blot analysis relative to control; assay type: cell-based
[5] = system: MDA-MB-231; experiment: Induction of apoptosis in human MDA-MB-231 cells assessed as decrease in Bcl-2 level at 2.5 to 10 uM incubated upto 48 hrs by Western blot analysis; assay type: functional, cell-based; conditions: dose 2.5-10 µM
[6] = system: MDA-MB-231; experiment: Antitumor activity against human MDA-MB-231 cells xenografted in BALB/c mouse assessed as reduction in tumor weight at 20 mg/kg, ip qd for 12 days; assay type: functional, organism-based; conditions: time 12.0 day
[7] = Toxicity in BALB/c mouse xenografted with human MDA-MB-231 cells assessed as body weight change at 20 mg/kg, ip qd for 12 days; assay type: organism-based; conditions: in vivo, 288 h, time 12 day
[8] = target: T2, Serine/threonine-protein kinase PAK 1 (Homo sapiens, UniProt Q13153); experiment: Inhibition of PAK1 phosphorylation at S199 in human MDA-MB-231 cells incubated upto 48 hrs by Western blot analysis; assay type: cell-based
[9] = system: MDA-MB-231; experiment: Induction of apoptosis in human MDA-MB-231 cells assessed as increase in cleaved caspase-9 level at 2.5 to 10 uM incubated upto 48 hrs by Western blot analysis; assay type: functional, cell-based; conditions: dose 2.5-10 µM
[10] = target: T2, Serine/threonine-protein kinase PAK 1; experiment: Inhibition of PAK1 in human MDA-MB-231 cells at 5 uM incubated for 24 hrs by immunofluorescence based analysis; assay type: cell-based
[11] = system: MDA-MB-231; experiment: Inhibition of cell migration in human MDA-MB-231 cells at 2.5 uM incubated for 24 hrs by transwell assay; assay type: functional, cell-based
[12] = target: T1, von Hippel-Lindau disease tumor suppressor/Serine/threonine-protein kinase PAK 1; experiment: PROTAC activity at VHL/PAK1 in human MDA-MB-231 cells assessed as induction of protein degradation incubated for 48 hrs in presence of Bortezomib by Western blot analysis; assay type: cell-based
[13] = target: T2, Serine/threonine-protein kinase PAK 1; experiment: Inhibition of PAK1 in human MDA-MB-231 cells assessed as decrease in ERK1/2 phosphorylation at Thr202/Tyr204 incubated upto 48 hrs by Western blot analysis; assay type: cell-based
[14] = system: MDA-MB-231; experiment: Antiproliferative activity against human MDA-MB-231 cells assessed as decrease in green fluorescence by EdU staining based analysis; assay type: functional, cell-based
[15] = system: MDA-MB-231; experiment: Induction of apoptosis in human MDA-MB-231 cells xenografted in BALB/c mouse assessed as increase in Bax level at 20 mg/kg, ip qd for 12 days by Western blot analysis; assay type: functional, organism-based; conditions: time 12.0 day
[16] = target: T2, Serine/threonine-protein kinase PAK 1; experiment: Binding affinity to CM5 chip-immobilized recombinant PAK1 (unknown origin) by SPR analysis
[17] = target: Serine/threonine-protein kinase PAK 2 (Homo sapiens) (UniProt Q13177); experiment: Inhibition of PAK2 in human MDA-MB-231 cells incubated upto 48 hrs by Western blot analysis; assay type: cell-based
[18] = system: MDA-MB-231; experiment: Induction of apoptosis in human MDA-MB-231 cells assessed as increase in Bax level at 2.5 to 10 uM incubated upto 48 hrs by Western blot analysis; assay type: functional, cell-based; conditions: dose 2.5-10 µM
[19] = system: MDA-MB-231; experiment: Induction of apoptosis in human MDA-MB-231 cells assessed as increase in cleaved caspase-3 level at 2.5 to 10 uM incubated upto 48 hrs by Western blot analysis; assay type: functional, cell-based; conditions: dose 2.5-10 µM
[20] = system: MDA-MB-231; experiment: Inhibition of cell proliferation of human MDA-MB-231 cells assessed as decrease in Ki-67 expression at 2.5 uM incubated for 24 hrs by immunofluorescence based analysis; assay type: functional
[21] = system: MDA-MB-231; experiment: Antiproliferative activity against human MDA-MB-231 cells incubated for 48 hrs by MTT assay; assay type: functional, cell-based; conditions: MDA-MB-231, 48 h
[22] = system: MDA-MB-231; experiment: Induction of apoptosis in human MDA-MB-231 cells assessed as increase in cleaved caspase-8 level at 2.5 to 10 uM incubated upto 48 hrs by Western blot analysis; assay type: functional, cell-based; conditions: dose 2.5-10 µM
[23] = system: MDA-MB-231; experiment: Induction of apoptosis in human MDA-MB-231 cells xenografted in BALB/c mouse assessed as increase in cleaved caspase-3 level at 20 mg/kg, ip qd for 12 days by Western blot analysis; assay type: functional, organism-based; conditions: time 12.0 day
[24] = system: MDA-MB-231; experiment: Antiproliferative activity against human MDA-MB-231 cells assessed as decrease in Ki-67 expression at 5 uM incubated for 24 hrs by immunofluorescence based analysis; assay type: functional, cell-based
[25] = target: T1, von Hippel-Lindau disease tumor suppressor/Serine/threonine-protein kinase PAK 1; experiment: PROTAC activity at VHL/PAK1 in human MDA-MB-231 cells assessed as fold change in protein expression at 2.5 uM incubated for 48 hrs by Western blot analysis relative to control; assay type: cell-based
[26] = system: MDA-MB-231; experiment: Inhibition of cell migration in human MDA-MB-231 cells upto 10 uM incubated upto 48 hrs by wound healing assay; assay type: functional, cell-based
[27] = system: MDA-MB-231; experiment: Inhibition of cell proliferation of human MDA-MB-231 cells at 2.5 uM by crystal violet staining based colony formation assay; assay type: functional
[28] = system: MDA-MB-231; experiment: Inhibition of 3D-spherioid formation of human MDA-MB-231 cells at 2.5 uM by crystal violet staining based colony formation assay; assay type: functional, cell-based
[29] = target: T2, Serine/threonine-protein kinase PAK 1; experiment: In vivo inhibition of PAK1 phosphorylation at S199 in human MDA-MB-231 cells xenografted in BALB/c mouse at 20 mg/kg, ip qd for 12 days by Western blot analysis; assay type: functional, organism-based; conditions: time 12.0 day
[30] = target: T2, Serine/threonine-protein kinase PAK 1; experiment: In vivo inhibition of PAK1 in human MDA-MB-231 cells xenografted in BALB/c mouse at 20 mg/kg, ip qd for 12 days by IHC analysis; assay type: functional, organism-based; conditions: time 12.0 day
[31] = target: T2, Serine/threonine-protein kinase PAK 1; experiment: In vivo inhibition of PAK1 in human MDA-MB-231 cells xenografted in BALB/c mouse at 20 mg/kg, ip qd for 12 days by Western blot analysis; assay type: functional, organism-based; conditions: time 12.0 day
[32] = system: MDA-MB-231; experiment: Inhibition of cell proliferation of human MDA-MB-231 cells at 2.5 uM by EdU staining based analysis; assay type: functional
[33] = system: MDA-MB-231; experiment: Antitumor activity against human MDA-MB-231 cells xenografted in BALB/c mouse assessed as reduction in tumor growth rate at 20 mg/kg, ip qd for 12 days; assay type: functional, organism-based; conditions: time 12.0 day
[34] = system: MDA-MB-231; experiment: Induction of apoptosis in human MDA-MB-231 cells assessed as late apoptotic cells at 2.5 uM incubated for 12 to 48 hrs by Annexin V-FITC/PI staining based flow cytometry (reference value: 1.48 %); assay type: functional; conditions: time 12-48 hrs
[35] = system: MDA-MB-231; experiment: Induction of apoptosis in human MDA-MB-231 cells assessed as necrotic cells at 2.5 to 10 uM incubated for 24 hrs by Annexin V-FITC/PI staining based flow cytometry (reference value: 1.08 %); assay type: functional; conditions: dose 2.5-10 µM

T2 sequence (Q13153 whole entry): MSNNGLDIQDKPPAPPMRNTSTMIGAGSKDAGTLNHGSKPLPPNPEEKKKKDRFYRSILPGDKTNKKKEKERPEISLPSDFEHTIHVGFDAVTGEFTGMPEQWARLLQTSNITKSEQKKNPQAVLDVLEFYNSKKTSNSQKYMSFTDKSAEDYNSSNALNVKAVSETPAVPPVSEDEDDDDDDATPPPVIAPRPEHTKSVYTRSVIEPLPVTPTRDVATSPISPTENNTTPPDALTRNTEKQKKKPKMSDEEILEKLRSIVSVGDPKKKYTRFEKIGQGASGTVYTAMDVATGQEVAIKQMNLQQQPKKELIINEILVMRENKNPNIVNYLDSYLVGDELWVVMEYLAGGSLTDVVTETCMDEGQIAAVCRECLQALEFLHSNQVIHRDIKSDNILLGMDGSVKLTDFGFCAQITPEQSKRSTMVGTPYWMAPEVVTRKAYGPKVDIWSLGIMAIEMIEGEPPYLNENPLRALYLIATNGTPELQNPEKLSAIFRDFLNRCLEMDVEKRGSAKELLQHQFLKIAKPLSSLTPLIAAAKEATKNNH
T1 sequence (Q13153 2-545 limits assumed): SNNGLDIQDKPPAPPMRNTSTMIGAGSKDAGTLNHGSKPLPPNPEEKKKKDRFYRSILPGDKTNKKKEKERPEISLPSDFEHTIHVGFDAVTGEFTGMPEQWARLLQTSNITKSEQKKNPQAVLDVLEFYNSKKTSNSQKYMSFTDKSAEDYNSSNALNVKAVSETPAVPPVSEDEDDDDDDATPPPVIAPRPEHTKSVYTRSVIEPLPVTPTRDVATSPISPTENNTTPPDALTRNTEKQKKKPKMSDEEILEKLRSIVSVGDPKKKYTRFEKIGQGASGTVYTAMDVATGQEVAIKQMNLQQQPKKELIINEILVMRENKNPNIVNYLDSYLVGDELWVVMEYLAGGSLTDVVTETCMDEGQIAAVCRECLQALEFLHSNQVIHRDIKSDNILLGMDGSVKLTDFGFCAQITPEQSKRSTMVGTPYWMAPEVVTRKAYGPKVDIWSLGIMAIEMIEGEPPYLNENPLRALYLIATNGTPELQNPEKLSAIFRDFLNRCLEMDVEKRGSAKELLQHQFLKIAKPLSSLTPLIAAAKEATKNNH
T1 sequence (P40337 whole entry partner): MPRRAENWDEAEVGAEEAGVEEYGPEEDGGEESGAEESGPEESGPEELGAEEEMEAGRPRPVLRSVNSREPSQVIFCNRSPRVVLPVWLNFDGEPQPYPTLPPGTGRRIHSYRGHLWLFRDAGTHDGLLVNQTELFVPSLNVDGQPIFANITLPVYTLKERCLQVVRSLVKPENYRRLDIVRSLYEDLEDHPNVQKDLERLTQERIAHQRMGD
Sequence of Serine/threonine-protein kinase PAK 2 (Homo sapiens) (Q13177 whole entry): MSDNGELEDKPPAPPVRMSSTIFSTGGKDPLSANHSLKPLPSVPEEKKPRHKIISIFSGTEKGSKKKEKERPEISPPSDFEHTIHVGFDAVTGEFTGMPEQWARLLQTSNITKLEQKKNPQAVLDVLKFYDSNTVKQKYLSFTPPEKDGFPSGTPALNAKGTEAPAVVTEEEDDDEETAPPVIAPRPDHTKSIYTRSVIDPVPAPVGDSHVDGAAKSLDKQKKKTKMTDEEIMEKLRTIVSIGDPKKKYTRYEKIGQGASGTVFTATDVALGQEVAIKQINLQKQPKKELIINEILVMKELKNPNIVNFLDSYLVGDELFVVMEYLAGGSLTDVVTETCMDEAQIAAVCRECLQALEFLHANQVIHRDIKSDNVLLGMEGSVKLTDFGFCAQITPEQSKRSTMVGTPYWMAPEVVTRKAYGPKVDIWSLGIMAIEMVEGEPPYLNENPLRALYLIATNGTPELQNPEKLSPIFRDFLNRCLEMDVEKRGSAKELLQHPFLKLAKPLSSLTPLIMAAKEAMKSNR

Cc1ncsc1-c1ccc([C@H](C)NC(=O)[C@@H]2C[C@@H](O)CN2C(=O)[C@@H](NC(=O)CCc2cn(CCCCCCCn3c(=O)c(-c4ccc(Cl)cc4Cl)cc4cnc(NC5CC5)nc43)nn2)C(C)(C)C)cc1
Activity [1]: 5.67%
Activity [2]: Active
Activity [3]: 11.7%
Activity [4]: 52.4%
Activity [5]: Active
Activity [6]: Active
Activity [7]: Non-Toxic
inhibition [8]: Active
Activity [9]: Active
inhibition [10]: Active
inhibition [11]: Active
Activity [12]: inactive
inhibition [13]: Active
Activity [14]: Active
Activity [15]: Active
Activity [16]: Dose-Dependent Effect
inhibition [17]: inactive
Activity [18]: Active
Activity [19]: Active
inhibition [20]: Active
IC50 [21]: 1270 nM
Activity [22]: Active
Activity [23]: Active
Activity [24]: Active
fold change (FC) [25]: 0.29
inhibition [26]: Active
inhibition [27]: Active
inhibition [28]: Active
inhibition [29]: Active
inhibition [30]: Active
inhibition [31]: Active
inhibition [32]: Active
Activity [33]: Active
Activity [34]: 8.21%
Activity [35]: 4.92%
